Assay results reported in patent US20080274892A1, “Novel Haloalkylsulfonanilide Derivative, Herbicide, and Method of Use Thereof” (priority 2005, published 2008).

Key:
false pimpernel [1] = experiment: Test Example 2: herbicidal efficacy on rice paddy weeds post-emergence; format: in vivo, Lindernia pyxidaria; settings: post-emergence, one leaf stage, 21 days after treatment
bulrush [2] = experiment: Test Example 4: low dosage test for rice paddy weeds; format: in vivo, Scirpus juncoides; settings: 300 g/ha as an active ingredient; plants treated at the one leaf stage; 21 days after treatment; vs untreated control
Summary of the method: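 Compound applied as a formulation at 300 g/ha to one-leaf bulrush grown in flooded clay loam (5 cm water) in a hot house. After 21 days, growth inhibition versus untreated plants rated on a 0–4 scale, with 4 meaning 90–100%.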

bulrush [3] = experiment: Test Example 2: herbicidal efficacy on rice paddy weeds post-emergence; format: in vivo, Scirpus juncoides; settings: post-emergence, one leaf stage, 21 days after treatment
false pimpernel [4] = experiment: Test Example 1: herbicidal efficacy on rice paddy weeds pre-emergence; format: in vivo, Lindernia pyxidaria; settings: 21 days
barnyard glass = experiment: Test Example 2: herbicidal efficacy on rice paddy weeds post-emergence; format: in vivo, Echinochloa crus-galli; settings: post-emergence, one leaf stage, 21 days after treatment
Summary of the method: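 Efficacy on paddy weeds was scored on a 0 to 4 growth-inhibition scale: 4 for 90%-100%, 3 for 70%-89%, 2 for 40%-69%, 1 for 1%-39% and 0 for 0%. Barnyard glass was grown in clay loam in 75 cm^2 pots under 5 cm of water in a hot house. It was compared with untreated pots 21 days after treatment.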

[5] = tested on: transplanted paddy rice plant and Bulrush; experiment: Test Example 5: selectivity between transplanted paddy rice plant and weeds; format: in vivo; settings: (highest dosage with no phytotoxicity to paddy rice)/(lowest dosage with effective level 4 on Bulrush); rice 3000-100 g/ha, Bulrush 300-10 g/ha; 21 days
Summary of the method: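 Scoring ran 21 days after treatment in a hothouse on a 0–4 scale (4 = 90–100%, 3 = 70–89%, 2 = 40–69%, 1 = 1–39%, 0 = none) relative to untreated plants. Post-emergence bulrush received 10, 30, 100 and 300 g/ha active ingredient. Transplanted rice received 100, 300, 1000 and 3000 g/ha to assess crop injury.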

bulrush [6] = experiment: Test Example 1: herbicidal efficacy on rice paddy weeds pre-emergence; format: in vivo, Scirpus juncoides; settings: 21 days
[7] = tested on: paddy rice plant (cultivar: Nihonbare); experiment: Test Example 3: phytotoxicity test for transplanted paddy rice plant; format: in vivo; settings: transplanted rice, 21 days after treatment
Summary of the method: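 Clay loam soil was placed in a 75 cm^2 plastic pot and flooded to a water depth of 5 cm. Two Nihonbare paddy rice plants at the two-leaf stage were transplanted 1 cm deep and grown in a hot house. After treatment, pots stayed in the hot house for 21 days, and phytotoxicity was then graded against an untreated control.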

[8] = dosage 1000 g/ha, treated 5 days after transplantation

Compound | False pimpernel post (herbicidal efficacy grade) (false pimpernel [1]; dosage 1000 g/ha) | Herbicide effect to Bulrush (bulrush [2]) | Bulrush post (herbicidal efficacy grade) (bulrush [3]; dosage 1000 g/ha) | False pimpernel pre (herbicidal efficacy grade) (false pimpernel [4]; dosage 1000 g/ha) | Burnyard grass post (herbicidal efficacy grade) (barnyard glass; dosage 1000 g/ha) | Selective Index [5] | Bulrush pre (herbicidal efficacy grade) (bulrush [6]; dosage 1000 g/ha) | Phytotoxicity to paddy rice [7, 8] | False pimpernel post (herbicidal efficacy grade) (false pimpernel [1]; dosage 300 g/ha) | Bulrush post (herbicidal efficacy grade) (bulrush [3]; dosage 300 g/ha) | False pimpernel pre (herbicidal efficacy grade) (false pimpernel [4]; dosage 300 g/ha) | Burnyard grass post (herbicidal efficacy grade) (barnyard glass; dosage 300 g/ha) | Bulrush pre (herbicidal efficacy grade) (bulrush [6]; dosage 300 g/ha) | Phytotoxicity to paddy rice ([7]; dosage 300 g/ha)
CCC(C)COC(=O)N(c1ccccc1CN1CC(C)(C)OC1=O)S(=O)(=O)C(F)(F)F (stereo not drawn) [1-67] | 4 (90%-100% of herbicidal efficacy or phytotoxicity) | 4 (90%-100% of herbicidal efficacy or phytotoxicity) | 4 (90%-100% of herbicidal efficacy or phytotoxicity) | 4 (90%-100% of herbicidal efficacy or phytotoxicity) | 4 (90%-100% of herbicidal efficacy or phytotoxicity) | ≧30 | 4 (90%-100% of herbicidal efficacy or phytotoxicity) | 1 (1%-39% of herbicidal efficacy or phytotoxicity) | – | – | – | – | – | –
CCC1(C)CN(Cc2ccccc2NS(=O)(=O)C(F)(F)F)C(=O)O1 (racemic) [1-59] | – | 4 (90%-100% of herbicidal efficacy or phytotoxicity) | – | – | – | 3.3 | – | – | 4 (90%-100% of herbicidal efficacy or phytotoxicity) | 4 (90%-100% of herbicidal efficacy or phytotoxicity) | 4 (90%-100% of herbicidal efficacy or phytotoxicity) | 3 (70%-89% of herbicidal efficacy or phytotoxicity) | 4 (90%-100% of herbicidal efficacy or phytotoxicity) | 3 (70%-89% of herbicidal efficacy or phytotoxicity)
COC(=O)N(c1ccccc1CN1CC(C)(C)SC1=O)S(=O)(=O)C(F)(F)F [1-186] | 4 (90%-100% of herbicidal efficacy or phytotoxicity) | 4 (90%-100% of herbicidal efficacy or phytotoxicity) | 4 (90%-100% of herbicidal efficacy or phytotoxicity) | 4 (90%-100% of herbicidal efficacy or phytotoxicity) | 4 (90%-100% of herbicidal efficacy or phytotoxicity) | 10 | 4 (90%-100% of herbicidal efficacy or phytotoxicity) | 1 (1%-39% of herbicidal efficacy or phytotoxicity) | – | – | – | – | – | –
CC(C)COC(=O)N(c1ccccc1CN1CC(C(C)C)OC1=O)S(=O)(=O)C(F)(F)F (stereo not drawn) [1-32] | 4 (90%-100% of herbicidal efficacy or phytotoxicity) | 3 (70%-89% of herbicidal efficacy or phytotoxicity) | 4 (90%-100% of herbicidal efficacy or phytotoxicity) | 4 (90%-100% of herbicidal efficacy or phytotoxicity) | 4 (90%-100% of herbicidal efficacy or phytotoxicity) | 10 | 4 (90%-100% of herbicidal efficacy or phytotoxicity) | 0 (0% of herbicidal efficacy or phytotoxicity) | – | – | – | – | – | –
CCCOC(=O)N(c1ccccc1CN1CC(C)(C)OC1=O)S(=O)(=O)C(F)(F)F [1-75] | 4 (90%-100% of herbicidal efficacy or phytotoxicity) | 4 (90%-100% of herbicidal efficacy or phytotoxicity) | 4 (90%-100% of herbicidal efficacy or phytotoxicity) | 4 (90%-100% of herbicidal efficacy or phytotoxicity) | 4 (90%-100% of herbicidal efficacy or phytotoxicity) | ≧30 | 4 (90%-100% of herbicidal efficacy or phytotoxicity) | 1 (1%-39% of herbicidal efficacy or phytotoxicity) | – | – | – | – | – | –
CCCCOC(=O)N(c1ccccc1CN1CC(C)(C)OC1=O)S(=O)(=O)C(F)(F)F [1-63] | 4 (90%-100% of herbicidal efficacy or phytotoxicity) | 4 (90%-100% of herbicidal efficacy or phytotoxicity) | 4 (90%-100% of herbicidal efficacy or phytotoxicity) | 4 (90%-100% of herbicidal efficacy or phytotoxicity) | 4 (90%-100% of herbicidal efficacy or phytotoxicity) | ≧30 | 4 (90%-100% of herbicidal efficacy or phytotoxicity) | 2 (40%-69% of herbicidal efficacy or phytotoxicity) | – | – | – | – | – | –
CC1(C)CN(Cc2ccccc2N(C(=O)OCC(Cl)(Cl)Cl)S(=O)(=O)C(F)(F)F)C(=O)O1 [1-65] | 4 (90%-100% of herbicidal efficacy or phytotoxicity) | 4 (90%-100% of herbicidal efficacy or phytotoxicity) | 4 (90%-100% of herbicidal efficacy or phytotoxicity) | 4 (90%-100% of herbicidal efficacy or phytotoxicity) | 4 (90%-100% of herbicidal efficacy or phytotoxicity) | 10 | 4 (90%-100% of herbicidal efficacy or phytotoxicity) | 1 (1%-39% of herbicidal efficacy or phytotoxicity) | – | – | – | – | – | –
COC(=O)N(c1ccccc1CN1C(=O)OC(C)(C)C1C)S(=O)(=O)C(F)(F)F (stereo not drawn) [1-148] | 4 (90%-100% of herbicidal efficacy or phytotoxicity) | 4 (90%-100% of herbicidal efficacy or phytotoxicity) | 4 (90%-100% of herbicidal efficacy or phytotoxicity) | 4 (90%-100% of herbicidal efficacy or phytotoxicity) | 4 (90%-100% of herbicidal efficacy or phytotoxicity) | ≧30 | 4 (90%-100% of herbicidal efficacy or phytotoxicity) | 3 (70%-89% of herbicidal efficacy or phytotoxicity) | – | – | – | – | – | –
C#CCOC(=O)N(c1ccccc1CN1CC(C)(C)OC1=O)S(=O)(=O)C(F)(F)F [1-79] | 4 (90%-100% of herbicidal efficacy or phytotoxicity) | 4 (90%-100% of herbicidal efficacy or phytotoxicity) | 4 (90%-100% of herbicidal efficacy or phytotoxicity) | 4 (90%-100% of herbicidal efficacy or phytotoxicity) | 4 (90%-100% of herbicidal efficacy or phytotoxicity) | 10 | 4 (90%-100% of herbicidal efficacy or phytotoxicity) | 2 (40%-69% of herbicidal efficacy or phytotoxicity) | – | – | – | – | – | –
CC(C)COC(=O)N(c1ccccc1CN1CC(C)(C2(C)CC2)OC1=O)S(=O)(=O)C(F)(F)F (stereo not drawn) [1-168] | 4 (90%-100% of herbicidal efficacy or phytotoxicity) | 4 (90%-100% of herbicidal efficacy or phytotoxicity) | 4 (90%-100% of herbicidal efficacy or phytotoxicity) | 4 (90%-100% of herbicidal efficacy or phytotoxicity) | 4 (90%-100% of herbicidal efficacy or phytotoxicity) | 10 | 4 (90%-100% of herbicidal efficacy or phytotoxicity) | 1 (1%-39% of herbicidal efficacy or phytotoxicity) | – | – | – | – | – | –
CC(C)COC(=O)N(c1ccccc1CN1CC2(CC2)OC1=O)S(=O)(=O)C(F)(F)F [1-89] | 4 (90%-100% of herbicidal efficacy or phytotoxicity) | 4 (90%-100% of herbicidal efficacy or phytotoxicity) | 4 (90%-100% of herbicidal efficacy or phytotoxicity) | 4 (90%-100% of herbicidal efficacy or phytotoxicity) | 4 (90%-100% of herbicidal efficacy or phytotoxicity) | 10 | 4 (90%-100% of herbicidal efficacy or phytotoxicity) | 1 (1%-39% of herbicidal efficacy or phytotoxicity) | – | – | – | – | – | –
COC(=O)N(c1ccccc1CN1CC(C)(c2ccccc2)OC1=O)S(=O)(=O)C(F)(F)F (stereo not drawn) [1-142] | 4 (90%-100% of herbicidal efficacy or phytotoxicity) | 4 (90%-100% of herbicidal efficacy or phytotoxicity) | 4 (90%-100% of herbicidal efficacy or phytotoxicity) | 4 (90%-100% of herbicidal efficacy or phytotoxicity) | 4 (90%-100% of herbicidal efficacy or phytotoxicity) | ≧30 | 4 (90%-100% of herbicidal efficacy or phytotoxicity) | 1 (1%-39% of herbicidal efficacy or phytotoxicity) | – | – | – | – | – | –
